In patent US11845730B2, “1,3-substituted cyclobutyl derivatives and uses thereof” (Novartis AG, priority 2021, dated 2023) one finds IC50 data, which are given here for 34 molecules.

The structures appear in SMILES notation. Structures can show the parent of a compound that is named as a salt.

In the assay the target is human TRPV1 (Homo sapiens (Human), UniProt Q8NER1). The following applies: read-out: IC50 (μM), antagonist effect against human TRPV1; CHO cells expressing human TrpV1; stimulated with 2.5 μM NADA (EC80); mean of at least three independent experiments.
human TRPV1, sequence (Q8NER1 whole entry): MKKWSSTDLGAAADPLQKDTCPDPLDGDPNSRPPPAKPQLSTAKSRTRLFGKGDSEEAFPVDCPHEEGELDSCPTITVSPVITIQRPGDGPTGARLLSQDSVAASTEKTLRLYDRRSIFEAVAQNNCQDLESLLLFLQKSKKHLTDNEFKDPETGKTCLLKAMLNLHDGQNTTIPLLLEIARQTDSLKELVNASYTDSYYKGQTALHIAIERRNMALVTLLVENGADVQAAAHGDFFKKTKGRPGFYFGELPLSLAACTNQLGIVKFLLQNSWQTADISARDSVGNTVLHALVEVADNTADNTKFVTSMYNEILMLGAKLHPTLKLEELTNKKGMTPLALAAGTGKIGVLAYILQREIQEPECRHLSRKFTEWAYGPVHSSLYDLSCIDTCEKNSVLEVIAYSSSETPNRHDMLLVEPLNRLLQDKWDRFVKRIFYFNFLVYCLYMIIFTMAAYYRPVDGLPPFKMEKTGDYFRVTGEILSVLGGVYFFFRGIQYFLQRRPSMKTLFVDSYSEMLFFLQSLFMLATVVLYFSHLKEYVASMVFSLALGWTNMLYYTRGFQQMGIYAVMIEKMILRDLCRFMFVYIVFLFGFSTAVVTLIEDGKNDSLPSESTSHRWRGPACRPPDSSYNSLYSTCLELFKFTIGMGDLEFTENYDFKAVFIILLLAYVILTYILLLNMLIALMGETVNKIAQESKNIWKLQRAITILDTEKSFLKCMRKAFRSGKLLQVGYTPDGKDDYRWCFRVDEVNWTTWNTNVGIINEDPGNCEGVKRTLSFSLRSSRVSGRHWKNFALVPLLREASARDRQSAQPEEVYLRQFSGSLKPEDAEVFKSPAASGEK
Protocol: Chinese Hamster Ovary (CHO) cells transfected to express human TrpV1 receptor (which are herein referred to as CHO-huTrpV1 cells), were grown in F-12 Ham's Nutrient Mixture media (HyClone SH30026.01) supplemented with 10% Fetal Bovine Serum (Invitrogen #26140-079), 1% Antibiotic/antimycotic (Invitrogen #15240-062) and 500 ug/mL geneticin (ThermoFisher scientific #1031035). Cells were grown in T-75 flasks at 37° C. incubator with 5% CO2. The cells were passaged twice a week at a ratio of 1:10 to 1:20 to maintain steady growth. For experimentation, cells were harvested at approximately 80% confluency and plated onto 384 well black cell culture plates (cat #781091, Greinier Bio-One Inc.) at 15,000 cells per well in 20 μl media and grown overnight.
The loading dye was prepared following instruction of Calcium 6 assay kit (Molecular Probes, #R8190): 10 ml buffer from bottle B was added to 1 vial of bottle A (adapted to room temperature from −20° C.) and mixed well, then 2.5 mM of fresh prepared probenecid, was added and mixed well. 20 μl/well of loading dye was added on top of the cells, and incubated at 37° C. for 1 hour 30 min.
Assay buffer preparation: 1×HBSS, 2 mM HEPES, 0.1% BSA plus 2.5 mM freshly prepared probenecid (Invitrogen, #P36400). 25 μl/well assay buffer in 384 well clear plate (cat #782281, Greiner Bio-one) was dispensed with buffer distributor (Multidrop ComB1 from Thermo Scientific). The compounds were in 384 Echo plate (cat #LPL0200, Labcyte) and the starting concentration of compound was 10 mM, then 1 to 3 serial dilution in 100% DMSO, 8 ul/well). 125 nl compounds was transferred to the 384 well plate containing 25 μl/well buffer with Echo® 555 Liquid Handler (Labcyte), such that the compound concentration was 5 fold of final concentration. The plate was shook slowly at 40 rpm/min for 10 min to mix. 10 μl of 5 fold compound in the buffer was transferred to the cell plate (containing 20 μl cells and 20 μl dye) using Vertical Pipetting Station 384ST (Agilent Technologies). Six fold of final concentration of NADA (N-arachidonyl dopamine, cat #A8848, Sigma) in the assay buffer was prepared and 30 μl/well was distributed in 384 well clear plate.
After compounds were added to the cell plate with loading dye, within 10-15 minutes, cell plate and plate containing NADA was placed into the FLIPR (Fluorescent Imaging Plate Reader) instrument (Tetra System, Molecular device). The TRPV1 receptor was stimulated by application of 10 μl per well of NADA. For testing the effect of compounds for possible antagonism, 2.5 μM NADA was used at the EC80 concentration.
For determination of antagonist IC50 values (concentration of antagonist that inhibits response to NADA by 50%), at least 10 antagonist concentration were measured in triplicate. The response in the presence of the antagonist was calculated as a percentage of the control response to NADA and was plotted against the concentration of the antagonist. The IC50 was estimated by non-linear regression analysis to sigmoidal-logistic curves by HELIOS (PROD 2) system. These values were averaged (means and standard error of the mean) for at least three independent experiments.
On to `OCC(O)c1cc(F)c(CN[C@H]2C[C@H](Oc3ccc(F)c(C(F)(F)F)c3)C2)c2ccncc12` (mixture of isomers) [Example 7 racemic, 1-(6-fluoro-5-((((1r,3r)-3-(4-fluoro-3-(trifluoromethyl)phenoxy)cyclobutyl)amino)methyl)isoquinolin-8-yl)ethane-1,2-diol], for which the IC50 (in general, the concentration needed to halve the response being measured) is 10.4 nM.

For the molecule `OCCC(O)c1cc(F)c(CNC2CC(Oc3ccc(F)c(C(F)(F)F)c3)C2)c2ccncc12` (racemic) [Example 9 racemic, 1-(6-fluoro-5-((((1r,3r)-3-(4-fluoro-3-(trifluoromethyl)phenoxy)cyclobutyl)amino)methyl)isoquinolin-8-yl)propane-1,3-diol], the IC50 was determined as 0.58 nM. In the case of `OC[C@@H](O)c1cc(F)c(CN[C@H]2C[C@H](Oc3ccc(F)c(C(F)(F)F)c3)C2)c2ccncc12` (single isomer, unassigned; peak 1) [Example 7 peak 1] it was 0.62 nM; in that of `OCC[C@H](O)c1cc(F)c(CN[C@H]2C[C@H](Oc3ccc(F)c(C(F)(F)F)c3)C2)c2ccncc12` (single isomer, unassigned; peak 1) [Example 9 peak 1], 0.09 nM.

Take `Nc1cc2c(CN[C@H]3C[C@H](Oc4ccc(F)c(C(F)(F)F)c4)C3)c(F)cc([C@@H](O)CO)c2cn1` (single isomer, unassigned; peak 1) [Example 21 peak 1]: the IC50 came to 4.42 nM. In the case of `OC[C@H](O)c1cc(F)c(CN[C@H]2C[C@H](Oc3ccc(F)c(C(F)(F)F)c3)C2)c2ccncc12` (single isomer, unassigned; peak 2) [Example 7 peak 2] it was 6.3 nM; in that of `OCC[C@@H](O)c1cc(F)c(CN[C@H]2C[C@H](Oc3ccc(F)c(C(F)(F)F)c3)C2)c2ccncc12` (single isomer, unassigned; peak 2) [Example 9 peak 2], 13.7 nM; in that of `Nc1cc2c(CN[C@H]3C[C@H](Oc4ccc(F)c(C(F)(F)F)c4)C3)c(F)cc([C@H](O)CO)c2cn1` (single isomer, unassigned; peak 2) [Example 21 peak 2], 11.3 nM.

As for `Cc1ccc2cnccc2c1CN[C@H]1C[C@H](Oc2ccc(F)c(C(F)(F)F)c2)C1` [Example 1, (1r,3r)-3-(4-fluoro-3-(trifluoromethyl)phenoxy)-N-((6-methylisoquinolin-5-yl)methyl)cyclobutan-1-amine, HCl], the 50% inhibitory concentration (IC50) was 20.8 nM. In the case of `Cc1ccc2cnccc2c1CN[C@H]1C[C@H](Oc2ccc(C(F)(F)F)nc2)C1` [Example 2, (1r,3r)-N-((6-methylisoquinolin-5-yl)methyl)-3-((6-(trifluoromethyl)pyridin-3-yl)oxy)cyclobutan-1-amine, HCl] it was 711 nM; in that of `Fc1ccc(O[C@H]2C[C@H](NCc3c(F)ccc4cnccc34)C2)cc1C(F)(F)F` [Example 3, (1r,3r)-3-(4-fluoro-3-(trifluoromethyl)phenoxy)-N-((6-fluoroisoquinolin-5-yl)methyl)cyclobutan-1-amine, HCl], 3.44 nM; in that of `Nc1ccc(CN[C@H]2C[C@H](Oc3ccc(F)c(C(F)(F)F)c3)C2)c2ccncc12` [Example 5, 5-((((1r,3r)-3-(4-fluoro-3-(trifluoromethyl)phenoxy)cyclobutyl)amino)methyl)isoquinolin-8-amine, HCl], 259 nM. Next, `OCc1cc(F)c(CN[C@H]2C[C@H](Oc3ccc(F)c(C(F)(F)F)c3)C2)c2ccncc12` [Example 6, (6-fluoro-5-((((1r,3r)-3-(4-fluoro-3-(trifluoromethyl)phenoxy)cyclobutyl)amino)methyl)isoquinolin-8-yl)methanol, HCl]: 7.25 nM. In the case of `CC(O)c1cc(F)c(CN[C@H]2C[C@H](Oc3ccc(F)c(C(F)(F)F)c3)C2)c2ccncc12` (stereo partly shown) [Example 8, 1-(6-fluoro-5-((((1r,3r)-3-(4-fluoro-3-(trifluoromethyl)phenoxy)cyclobutyl)amino)methyl)isoquinolin-8-yl)ethan-1-ol, HCl] it was 165 nM; in that of `OCCc1cc(F)c(CN[C@H]2C[C@H](Oc3ccc(F)c(C(F)(F)F)c3)C2)c2ccncc12` [Example 10, 2-(6-fluoro-5-((((1r,3r)-3-(4-fluoro-3-(trifluoromethyl)phenoxy)cyclobutyl)amino)methyl)isoquinolin-8-yl)ethan-1-ol, HCl], 166 nM.

Turning to `OC(CC(F)(F)F)c1cc(F)c(CN[C@H]2C[C@H](Oc3ccc(F)c(C(F)(F)F)c3)C2)c2ccncc12` (stereo partly shown) [Example 11, 3,3,3-trifluoro-1-(6-fluoro-5-((((1r,3r)-3-(4-fluoro-3-(trifluoromethyl)phenoxy)cyclobutyl)amino)methyl)isoquinolin-8-yl)propan-1-ol], the IC50 worked out at 395 nM. Next, `Nc1cc(F)c(CN[C@H]2C[C@H](Oc3ccc(F)c(C(F)(F)F)c3)C2)c2ccncc12` [Example 12, 6-fluoro-5-((((1r,3r)-3-(4-fluoro-3-(trifluoromethyl)phenoxy)cyclobutyl)amino)methyl)isoquinolin-8-amine]: 57.8 nM; `Nc1cc2c(CN[C@H]3C[C@H](Oc4ccc(F)c(C(F)(F)F)c4)C3)cccc2cn1` [Example 13, 5-((((1r,3r)-3-(4-fluoro-3-(trifluoromethyl)phenoxy)cyclobutyl)amino)methyl)isoquinolin-3-amine]: 63.7 nM. In the case of `Nc1cc2c(CN[C@H]3C[C@H](Oc4ccc(F)c(C(F)(F)F)c4)C3)c(F)ccc2cn1` [Example 14, 6-fluoro-5-((((1r,3r)-3-(4-fluoro-3-(trifluoromethyl)phenoxy)cyclobutyl)amino)methyl)isoquinolin-3-amine, HCl] it was 4.04 nM; in that of `Nc1cc2c(CN[C@H]3C[C@H](Oc4ccc(F)cc4F)C3)c(F)ccc2cn1` [Example 15, 5-((((1r,3r)-3-(2,4-difluorophenoxy)cyclobutyl)amino)methyl)-6-fluoroisoquinolin-3-amine, HCl], 51 nM; in that of `Nc1cc2c(CN[C@H]3C[C@H](Oc4ccnc(C(F)(F)F)c4)C3)c(F)ccc2cn1` [Example 16, 6-fluoro-5-((((1r,3r)-3-((2-(trifluoromethyl)pyridin-4-yl)oxy)cyclobutyl)amino)methyl)isoquinolin-3-amine, HCl], 31 nM.

With `Nc1cc2c(CN[C@H]3C[C@H](Oc4ccc(C(F)(F)F)nc4)C3)c(F)ccc2cn1` [Example 17, 6-fluoro-5-((((1r,3r)-3-((6-(trifluoromethyl)pyridin-3-yl)oxy)cyclobutyl)amino)methyl)isoquinolin-3-amine, HCl], the IC50 was determined as 130 nM. Next, `Nc1cc2c(CN[C@H]3C[C@H](Oc4ccc(F)c(C(F)(F)F)c4)C3)c(F)cc(CO)c2cn1` [Example 18, (3-amino-6-fluoro-5-((((1r,3r)-3-(4-fluoro-3-(trifluoromethyl)phenoxy)cyclobutyl)amino)methyl)isoquinolin-8-yl)methanol, HCl]: 1.63 nM; `Nc1cc2c(CN[C@H]3C[C@H](Oc4ccc(F)cc4F)C3)c(F)cc(CO)c2cn1` [Example 19, (3-amino-5-((((1r,3r)-3-(2,4-difluorophenoxy)cyclobutyl)amino)methyl)-6-fluoroisoquinolin-8-yl)methanol, HCl]: 16.2 nM. Next, `Nc1cc2c(CN[C@H]3C[C@H](Oc4ccnc(C(F)(F)F)c4)C3)c(F)cc(CO)c2cn1` [Example 20, (3-amino-6-fluoro-5-((((1r,3r)-3-((2-(trifluoromethyl)pyridin-4-yl)oxy)cyclobutyl)amino)methyl)isoquinolin-8-yl)methanol, HCl]: 87.2 nM. Next, `Fc1ccc(O[C@H]2C[C@H](NCc3cccc4cnccc34)C2)cc1C(F)(F)F` [Example 22, (1r,3r)-3-(4-fluoro-3-(trifluoromethyl)phenoxy)-N-(isoquinolin-5-ylmethyl)cyclobutan-1-amine, HCl]: 436 nM; `Oc1ccc(CN[C@H]2C[C@H](Oc3ccc(F)c(C(F)(F)F)c3)C2)c2ccncc12` [Example 23, 5-((((1r,3r)-3-(4-fluoro-3-(trifluoromethyl)phenoxy)cyclobutyl)amino)methyl)isoquinolin-8-ol, HCl]: 232 nM; `Cc1ccc(CN[C@H]2C[C@H](Oc3ccc(F)c(C(F)(F)F)c3)C2)c2ccncc12` [Example 24, (1r,3r)-3-(4-fluoro-3-(trifluoromethyl)phenoxy)-N-((8-methylisoquinolin-5-yl)methyl)cyclobutan-1-amine, HCl]: 906 nM. In the case of `OCc1ccc(CN[C@H]2C[C@H](Oc3ccc(F)c(C(F)(F)F)c3)C2)c2ccncc12` [Example 25, (5-((((1r,3r)-3-(4-fluoro-3-(trifluoromethyl)phenoxy)cyclobutyl)amino)methyl)isoquinolin-8-yl)methanol, HCl], the IC50 stood at 100 nM. In the case of `Fc1ccc(O[C@H]2C[C@H](NCc3c(F)ccc4cnccc34)C2)c(F)c1` [Example 26, (1r,3r)-3-(2,4-difluorophenoxy)-N-((6-fluoroisoquinolin-5-yl)methyl)cyclobutan-1-amine], the IC50 amounted to 108 nM.

Take `Fc1ccc(O[C@H]2C[C@H](NCc3c(F)ccc4cnccc34)C2)cc1F` [Example 27, (1r,3r)-3-(3,4-difluorophenoxy)-N-((6-fluoroisoquinolin-5-yl)methyl)cyclobutan-1-amine, HCl]: the half-inhibitory concentration (IC50) came out at 23 nM. In the case of `Fc1ccc(O[C@H]2C[C@H](NCc3cccc4cnccc34)C2)cc1Cl` [Example 28, (1r,3r)-3-(3-chloro-4-fluorophenoxy)-N-(isoquinolin-5-ylmethyl)cyclobutan-1-amine, HCl] it was 280 nM. In the case of `Fc1ccc2cnccc2c1CN[C@H]1C[C@H](Oc2cccc(OC(F)F)c2)C1` [Example 29, (1r,3r)-3-(3-(difluoromethoxy)phenoxy)-N-((6-fluoroisoquinolin-5-yl)methyl)cyclobutan-1-amine, HCl] it was 62.3 nM; in that of `Fc1ccc2cnccc2c1CN[C@H]1C[C@H](Oc2ccc(OC(F)F)cc2)C1` [Example 30, (1r,3r)-3-(4-(difluoromethoxy)phenoxy)-N-((6-fluoroisoquinolin-5-yl)methyl)cyclobutan-1-amine, HCl], 186 nM.
